# Data from paper PMC6128262 (Analytical chemistry, 2018).
# What was measured:
# CIAP = settings: read-out: Km value of ATP for CIAP; molybdenum blue based assay; cited from earlier work
# HpMTAN = settings: read-out: Km value for AdoHcy (HpMTAN); previously measured; cited from earlier work
# [1] = system: N[C@@H](Cc1c[nH]cn1)C(=O)O; test: purified protein, by the assay type; settings: pH 8.0; 25.0 °C
compound,measurement,setting,value
Nc1ncnc2c1ncn2[C@@H]1O[C@H](COP(=O)(O)OP(=O)(O)OP(=O)(O)O)[C@@H](O)[C@H]1O [ATP],Km,CIAP,20.5 µM
"Nc1ncnc2c1ncn2[C@@H]1O[C@H](CSCC[C@H](N)C(=O)O)[C@@H](O)[C@H]1O [AdoHcy, S-adenosylhomocysteine]",Km,HpMTAN,5 µM
EgtD (Mycobacterium tuberculosis H37Rv),Km,[1],330 ± 35 µM
